Measured values taken from ChEMBL document CHEMBL1201862, “PubChem BioAssay data set” (2004).
Active and inactive are the calls of the source.

Experiments:
Coagulation factor XII = target: T1, Coagulation factor XII (Homo sapiens, UniProt P00748); type: functional;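 further: activated factor XIIa alpha cleaving a fluorogenic AMC peptide substrate; inhibitor potency from loss of enzyme activity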
T1 sequence (P00748 whole entry): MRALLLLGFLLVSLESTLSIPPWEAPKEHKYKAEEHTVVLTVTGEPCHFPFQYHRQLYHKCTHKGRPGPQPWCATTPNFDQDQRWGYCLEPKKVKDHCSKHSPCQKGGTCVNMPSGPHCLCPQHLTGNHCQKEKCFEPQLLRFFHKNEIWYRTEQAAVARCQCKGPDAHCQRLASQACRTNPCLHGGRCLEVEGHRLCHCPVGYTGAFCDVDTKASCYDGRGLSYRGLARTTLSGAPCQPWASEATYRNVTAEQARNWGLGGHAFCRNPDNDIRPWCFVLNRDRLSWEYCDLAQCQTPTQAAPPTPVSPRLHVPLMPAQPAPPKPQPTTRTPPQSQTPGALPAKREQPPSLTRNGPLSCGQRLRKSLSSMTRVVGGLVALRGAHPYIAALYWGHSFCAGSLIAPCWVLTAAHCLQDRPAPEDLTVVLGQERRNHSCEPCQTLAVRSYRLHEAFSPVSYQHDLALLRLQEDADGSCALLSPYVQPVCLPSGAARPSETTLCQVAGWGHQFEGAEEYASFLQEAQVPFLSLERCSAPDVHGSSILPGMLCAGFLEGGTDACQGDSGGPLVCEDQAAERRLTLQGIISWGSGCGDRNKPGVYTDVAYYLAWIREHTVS

[1] = NIH3T3 cell viability loss – ATP luminescence, mouse fibroblasts, counter-screen, dose response (AID 2010); type: functional, cell-based;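 further: cells exposed to compound for about 90 hours before reading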
[2] = Trypanosoma cruzi growth suppression in host cells – NIH3T3 host cells, beta-gal luminescence, confirmation (AID 2044); type: functional, cell-based;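 further: intracellular parasites grown in NIH/3T3 mouse fibroblasts as host cells; luminescent beta-galactosidase reporter signal from transgenic T. cruzi replicating inside host cells; inhibitors lower the luminescence signal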
HeLa = experiment: ATP-based viability loss in HeLa cells – cell-based, CellTiter-Glo luminescence, cherry-pick samples, cytotoxicity control for MITF activator project, dose response (AID 540259); type: functional; details: Homo sapiens
Prothrombin = Prothrombin (Homo sapiens, UniProt P00734); experiment: Thrombin 1536 HTS Dose Response Confirmation. [Related pubchem assays: 1046 (Thrombin 1536 HTS; hits were confirmed in this assay)]; type: functional
Fatty acid synthase [3] = target: T2, Fatty acid synthase (Homo sapiens, UniProt P49327); experiment: inhibition of human FAS-TE enzyme activity – biochemical, endpoint fluorescence intensity, uHTS hits, dose response (AID 624327); type: functional;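 further: fluorescence from hydrolysis of an O-methyl fluorescein acyl ester substrate by the enzyme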
Fatty acid synthase [4] = target: T2, Fatty acid synthase; experiment: inhibition of human FAS-TE enzyme activity – biochemical, kinetic fluorescence intensity, dose response (AID 624326); type: functional;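 further: rate of fluorescence rise from hydrolysis of a fluorogenic O-methyl fluorescein ester substrate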
H9c2 = experiment: cells; type: functional, cell-based; details: Rattus norvegicus, H9c2, Myocardium;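 further: confirmatory concentration-response retest of ultra-high-throughput screening hits for modulation of myocardial damage; cell death induced by hydrogen peroxide oxidative stress; compound pretreatment for 60 min then peroxide exposure for 2 h; potency is for protecting the cells against peroxide damage rather than for killing them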
[5] = target: DNA dC->dU-editing enzyme APOBEC-3G (Homo sapiens, UniProt Q9HC16); experiment: Dose Response confirmation of small molecule APOBEC3G DNA Deaminase Inhibitors via a fluorescence-based single-stranded DNA deaminase assay. [Related pubchem assays (depositor defined):AID493012, AID493028]; type: functional
Leucine aminopeptidase = target: T3, Leucine aminopeptidase (Plasmodium falciparum 3D7, UniProt Q8IL11); experiment: P. falciparum M17LAP inhibitors, primary screen, biochemical, fluorogenic H-Leu-NHMec substrate, 1536-well (AID 1619); type: functional
T3 sequence (Q8IL11 whole entry): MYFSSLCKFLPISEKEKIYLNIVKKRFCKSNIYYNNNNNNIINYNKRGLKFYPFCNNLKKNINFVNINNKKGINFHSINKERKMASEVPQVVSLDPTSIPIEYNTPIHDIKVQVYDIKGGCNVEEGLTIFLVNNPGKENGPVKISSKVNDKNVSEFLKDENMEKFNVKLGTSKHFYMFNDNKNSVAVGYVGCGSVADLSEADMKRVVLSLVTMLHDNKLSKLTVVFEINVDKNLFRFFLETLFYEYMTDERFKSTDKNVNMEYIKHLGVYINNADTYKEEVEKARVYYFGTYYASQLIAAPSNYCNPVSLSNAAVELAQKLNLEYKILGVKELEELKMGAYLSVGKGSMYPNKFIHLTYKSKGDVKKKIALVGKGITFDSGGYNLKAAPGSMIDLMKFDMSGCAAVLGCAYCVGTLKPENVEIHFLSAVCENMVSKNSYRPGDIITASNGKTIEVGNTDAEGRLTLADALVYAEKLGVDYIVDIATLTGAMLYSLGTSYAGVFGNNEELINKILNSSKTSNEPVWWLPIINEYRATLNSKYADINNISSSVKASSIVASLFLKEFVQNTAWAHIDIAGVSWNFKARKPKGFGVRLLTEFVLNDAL

[6] = target: T4, Microphthalmia-associated transcription factor (Homo sapiens, UniProt O75030); experiment: reducers of TRPM1 reporter luminescence, concentration series – cell-based, SK-MEL-5, cherry-picked, set 3, MITF inhibitor project, dose response (AID 493073); type: functional;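 further: SK-MEL-5 melanoma cells with luciferase driven by the MITF target TRPM1 promoter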
T4 sequence (O75030 whole entry): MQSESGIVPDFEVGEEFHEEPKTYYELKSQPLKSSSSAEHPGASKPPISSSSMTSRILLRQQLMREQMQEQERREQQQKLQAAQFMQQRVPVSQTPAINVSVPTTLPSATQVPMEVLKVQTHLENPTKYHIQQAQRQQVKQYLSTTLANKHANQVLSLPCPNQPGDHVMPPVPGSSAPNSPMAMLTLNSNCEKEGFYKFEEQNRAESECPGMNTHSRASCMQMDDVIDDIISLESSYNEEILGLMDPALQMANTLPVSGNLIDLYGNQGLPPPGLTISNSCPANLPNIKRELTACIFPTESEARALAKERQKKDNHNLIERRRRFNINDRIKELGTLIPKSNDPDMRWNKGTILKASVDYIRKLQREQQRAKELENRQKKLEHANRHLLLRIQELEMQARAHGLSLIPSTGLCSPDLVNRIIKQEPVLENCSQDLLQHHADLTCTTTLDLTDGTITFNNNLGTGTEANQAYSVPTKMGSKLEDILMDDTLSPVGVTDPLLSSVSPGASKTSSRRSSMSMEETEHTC

Vero = experiment: viability of Vero cells under compound – cytotoxicity control for flavivirus capping enzyme inhibitors (AID 588742); type: functional; details: Chlorocebus sabaeus
Genome polyprotein = Genome polyprotein (dengue virus type 2, UniProt P29990); experiment: flavivirus cap methylation enzyme inhibition – biochemical, confirmation dose response, primary screen (AID 588689); type: functional
[7] = fluconazole-exposed Candida albicans growth modulators – fluorescence, retest, confirmation (AID 2467); type: functional, cell-based
[8] = NIH-3T3 fibroblast cytotoxicity, dose response, cytotoxicity control, cell-based, fluorescence, Alamar Blue, secondary assay (AID 2327); type: functional;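 further: NIH-3T3 mouse fibroblasts cultured with fluconazole at 8 µg/mL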
[9] = viability of HCT116 lacking mutant beta-catenin – cell-based, human colon tumor, dose response (AID 1045); type: functional;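 further: HCT116 colon tumor cells with beta catenin knocked out; cells exposed to compound for 60 hours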
[10] = viability of PTEN-deleted HCT116 cells – cell-based, HCT116 PTEN knockout, dose response (AID 1047); type: functional;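 further: HCT116 colon tumor cells with PTEN knocked out; cells exposed to compound for 60 hours before readout; potency for loss of cell viability measured by luminescence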
[11] = loss of viability in HepG2 cells – cell-based, CellTiter-Glo, cherry-picked, cytotoxicity control for Shn3 inhibitor project, dose response (AID 624134); type: functional
[12] = reduction of Shn3 3'UTR-driven luciferase in osteoblasts – cell-based, Clone20 osteoblasts, firefly luciferase, cherry-picked, dose response (AID 624132); type: functional;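 further: firefly luciferase luminescence from reporter carrying the Shn3 3'UTR in osteoblasts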
Protein Wnt-3a = Protein Wnt-3a (Mus musculus, UniProt P27467); experiment: antagonism of Wnt3a pathway luciferase reporter – Wnt-LIGHT cells, luminescence, selectivity assay for Gli-SUFU antagonist project, dose response (AID 651570); type: functional; details: read-out: IC50_Mean;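 further: Wnt-LIGHT reporter cells stimulated with conditioned medium from Wnt3a-producing cells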
[13] = non-specific 3'UTR reporter inhibition in Clone20-Shn3RL – cell-based, Renilla luciferase, cherry-picked, counter-screen for Shn3 inhibitor project, dose response (AID 624133); type: functional
[14] = target: T5, Polyadenylate-binding protein 1 (Homo sapiens, UniProt P11940); experiment: MLLE binding blockers, Cy5 peptide tracer – biochemical, fluorescence polarization, Cy5-PAM2 peptide, secondary, miRNA deadenylation inhibitor project, dose response (AID 602260); type: functional; details: read-out: IC50_Mean
[15] = target: T5, Polyadenylate-binding protein 1; experiment: MLLE domain peptide-binding blockers, IC50 – biochemical, fluorescence polarization, FITC-PAM2 peptide, dose response (AID 602259); type: functional; details: read-out: IC50_Mean
[16] = target: Induced myeloid leukemia cell differentiation protein Mcl-1 (Homo sapiens, UniProt Q07820); type: functional
[17] = intracellular Trypanosoma cruzi inhibitors in host cells – cell-based, plate reader, cherry-pick samples, set 3, dose response (AID 651818); type: functional;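 further: compounds incubated with infected cells for about four days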
cells [18] = type: functional, cell-based
cells [19] = type: functional, cell-based; remark: listed apart in the source

T5 sequence (P11940 whole entry, the tested form may be a part): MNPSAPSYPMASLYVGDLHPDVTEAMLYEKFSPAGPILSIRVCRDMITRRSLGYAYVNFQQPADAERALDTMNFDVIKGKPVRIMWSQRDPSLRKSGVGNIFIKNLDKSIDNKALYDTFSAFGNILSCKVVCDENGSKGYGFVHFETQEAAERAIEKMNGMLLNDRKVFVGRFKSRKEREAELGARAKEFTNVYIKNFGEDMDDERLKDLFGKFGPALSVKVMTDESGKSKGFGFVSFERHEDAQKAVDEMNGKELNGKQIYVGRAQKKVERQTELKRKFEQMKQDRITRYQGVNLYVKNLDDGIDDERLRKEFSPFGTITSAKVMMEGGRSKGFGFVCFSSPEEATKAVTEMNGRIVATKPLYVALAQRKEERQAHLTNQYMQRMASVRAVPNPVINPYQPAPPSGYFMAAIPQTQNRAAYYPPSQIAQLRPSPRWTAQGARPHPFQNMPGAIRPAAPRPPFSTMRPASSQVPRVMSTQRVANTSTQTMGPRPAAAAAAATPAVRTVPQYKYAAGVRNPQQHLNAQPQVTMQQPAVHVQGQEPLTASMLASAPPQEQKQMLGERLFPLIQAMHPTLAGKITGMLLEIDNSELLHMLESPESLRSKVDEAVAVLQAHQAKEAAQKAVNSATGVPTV
T2 sequence (P49327 whole entry): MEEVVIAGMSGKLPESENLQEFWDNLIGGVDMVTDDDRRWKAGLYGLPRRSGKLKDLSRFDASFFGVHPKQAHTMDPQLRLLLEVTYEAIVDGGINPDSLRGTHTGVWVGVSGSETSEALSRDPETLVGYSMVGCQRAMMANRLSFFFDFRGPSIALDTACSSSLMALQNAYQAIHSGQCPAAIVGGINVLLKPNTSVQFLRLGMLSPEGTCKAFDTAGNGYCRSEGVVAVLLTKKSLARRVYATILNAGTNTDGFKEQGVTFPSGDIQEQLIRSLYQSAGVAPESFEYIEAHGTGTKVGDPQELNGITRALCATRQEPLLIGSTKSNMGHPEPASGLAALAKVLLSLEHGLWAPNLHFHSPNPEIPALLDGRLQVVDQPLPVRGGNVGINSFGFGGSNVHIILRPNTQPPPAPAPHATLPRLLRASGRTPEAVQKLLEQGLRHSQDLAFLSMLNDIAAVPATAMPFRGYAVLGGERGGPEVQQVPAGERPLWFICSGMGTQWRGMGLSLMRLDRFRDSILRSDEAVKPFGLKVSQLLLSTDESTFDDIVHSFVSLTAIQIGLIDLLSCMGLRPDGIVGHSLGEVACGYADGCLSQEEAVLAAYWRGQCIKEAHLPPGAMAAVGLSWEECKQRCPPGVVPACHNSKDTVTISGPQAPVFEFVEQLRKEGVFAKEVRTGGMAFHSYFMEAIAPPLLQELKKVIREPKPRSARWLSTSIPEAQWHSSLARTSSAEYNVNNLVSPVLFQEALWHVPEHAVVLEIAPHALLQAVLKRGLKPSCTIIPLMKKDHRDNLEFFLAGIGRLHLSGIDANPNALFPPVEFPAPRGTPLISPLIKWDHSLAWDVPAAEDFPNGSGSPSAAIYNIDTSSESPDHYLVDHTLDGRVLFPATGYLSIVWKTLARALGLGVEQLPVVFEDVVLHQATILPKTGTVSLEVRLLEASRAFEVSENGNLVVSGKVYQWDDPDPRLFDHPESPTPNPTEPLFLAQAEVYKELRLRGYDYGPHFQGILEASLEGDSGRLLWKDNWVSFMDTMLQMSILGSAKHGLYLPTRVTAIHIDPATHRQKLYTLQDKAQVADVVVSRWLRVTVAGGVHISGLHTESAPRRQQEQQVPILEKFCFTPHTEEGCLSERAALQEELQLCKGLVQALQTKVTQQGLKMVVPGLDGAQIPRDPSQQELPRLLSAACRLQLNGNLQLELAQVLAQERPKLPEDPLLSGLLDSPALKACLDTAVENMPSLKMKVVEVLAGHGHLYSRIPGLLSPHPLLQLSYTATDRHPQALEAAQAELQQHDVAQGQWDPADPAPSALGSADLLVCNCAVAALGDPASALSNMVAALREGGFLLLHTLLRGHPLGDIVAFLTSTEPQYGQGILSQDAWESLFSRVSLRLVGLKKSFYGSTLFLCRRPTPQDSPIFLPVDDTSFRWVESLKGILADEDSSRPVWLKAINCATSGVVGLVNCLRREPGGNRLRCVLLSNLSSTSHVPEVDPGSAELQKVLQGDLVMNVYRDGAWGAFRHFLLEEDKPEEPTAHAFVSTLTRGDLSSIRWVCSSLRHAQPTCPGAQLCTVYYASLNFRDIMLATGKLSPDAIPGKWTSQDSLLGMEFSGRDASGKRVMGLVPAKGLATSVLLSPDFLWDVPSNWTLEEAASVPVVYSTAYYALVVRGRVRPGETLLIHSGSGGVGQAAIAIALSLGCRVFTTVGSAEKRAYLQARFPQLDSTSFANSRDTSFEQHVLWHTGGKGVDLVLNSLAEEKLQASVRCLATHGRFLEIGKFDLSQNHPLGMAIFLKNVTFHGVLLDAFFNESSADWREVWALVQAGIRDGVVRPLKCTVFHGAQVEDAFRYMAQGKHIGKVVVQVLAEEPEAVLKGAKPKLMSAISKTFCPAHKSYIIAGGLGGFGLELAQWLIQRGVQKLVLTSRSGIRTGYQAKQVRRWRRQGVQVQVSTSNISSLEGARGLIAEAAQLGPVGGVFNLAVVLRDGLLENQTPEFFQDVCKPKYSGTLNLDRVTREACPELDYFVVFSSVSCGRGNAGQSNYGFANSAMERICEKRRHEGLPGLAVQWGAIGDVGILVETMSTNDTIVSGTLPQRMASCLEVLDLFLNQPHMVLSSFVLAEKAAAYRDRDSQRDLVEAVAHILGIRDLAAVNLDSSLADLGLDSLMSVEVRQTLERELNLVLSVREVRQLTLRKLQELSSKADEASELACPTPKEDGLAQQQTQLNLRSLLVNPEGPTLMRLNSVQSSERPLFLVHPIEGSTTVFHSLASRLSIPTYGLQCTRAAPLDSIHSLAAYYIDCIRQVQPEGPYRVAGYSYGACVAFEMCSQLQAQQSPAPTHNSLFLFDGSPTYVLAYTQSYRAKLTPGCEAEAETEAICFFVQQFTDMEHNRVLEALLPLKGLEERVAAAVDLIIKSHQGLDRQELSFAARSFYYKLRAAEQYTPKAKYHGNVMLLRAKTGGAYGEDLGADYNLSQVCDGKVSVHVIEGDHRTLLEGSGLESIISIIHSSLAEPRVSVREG
Genome polyprotein, sequence (P29990 2492-3391 limits assumed): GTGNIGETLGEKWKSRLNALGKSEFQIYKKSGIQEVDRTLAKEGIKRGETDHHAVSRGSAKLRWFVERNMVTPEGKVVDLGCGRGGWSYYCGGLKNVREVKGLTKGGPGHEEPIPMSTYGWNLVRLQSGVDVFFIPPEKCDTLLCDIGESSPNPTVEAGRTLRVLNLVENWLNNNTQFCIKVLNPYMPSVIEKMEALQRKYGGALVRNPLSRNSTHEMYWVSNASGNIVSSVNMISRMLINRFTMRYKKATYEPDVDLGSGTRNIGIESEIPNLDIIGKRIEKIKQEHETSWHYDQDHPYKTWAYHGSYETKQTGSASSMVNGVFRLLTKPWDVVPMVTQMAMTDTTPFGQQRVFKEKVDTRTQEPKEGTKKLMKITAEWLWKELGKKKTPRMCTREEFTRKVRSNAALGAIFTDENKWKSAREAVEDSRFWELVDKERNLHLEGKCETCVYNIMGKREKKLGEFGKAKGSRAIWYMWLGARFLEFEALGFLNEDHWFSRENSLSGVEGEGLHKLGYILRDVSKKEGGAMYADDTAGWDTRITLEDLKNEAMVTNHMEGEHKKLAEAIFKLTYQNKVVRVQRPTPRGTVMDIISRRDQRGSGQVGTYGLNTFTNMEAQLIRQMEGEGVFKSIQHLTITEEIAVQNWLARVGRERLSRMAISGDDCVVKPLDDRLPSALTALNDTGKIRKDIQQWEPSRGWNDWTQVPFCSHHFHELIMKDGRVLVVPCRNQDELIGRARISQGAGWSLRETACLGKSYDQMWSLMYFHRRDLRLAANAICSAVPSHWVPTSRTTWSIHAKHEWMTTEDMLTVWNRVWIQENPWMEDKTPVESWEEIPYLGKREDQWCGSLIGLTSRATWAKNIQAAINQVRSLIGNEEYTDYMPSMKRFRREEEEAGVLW
DNA dC->dU-editing enzyme APOBEC-3G, sequence (Q9HC16 whole entry): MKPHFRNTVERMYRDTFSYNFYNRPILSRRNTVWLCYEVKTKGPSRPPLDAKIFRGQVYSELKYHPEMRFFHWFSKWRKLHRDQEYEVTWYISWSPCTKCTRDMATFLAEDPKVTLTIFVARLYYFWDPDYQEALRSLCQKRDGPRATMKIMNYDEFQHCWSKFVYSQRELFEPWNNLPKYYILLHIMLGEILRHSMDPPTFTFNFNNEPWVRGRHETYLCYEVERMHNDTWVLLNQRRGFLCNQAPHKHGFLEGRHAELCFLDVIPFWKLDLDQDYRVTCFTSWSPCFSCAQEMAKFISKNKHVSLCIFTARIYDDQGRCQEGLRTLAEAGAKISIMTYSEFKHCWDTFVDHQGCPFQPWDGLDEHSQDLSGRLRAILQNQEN
Induced myeloid leukemia cell differentiation protein Mcl-1, sequence (Q07820 whole entry): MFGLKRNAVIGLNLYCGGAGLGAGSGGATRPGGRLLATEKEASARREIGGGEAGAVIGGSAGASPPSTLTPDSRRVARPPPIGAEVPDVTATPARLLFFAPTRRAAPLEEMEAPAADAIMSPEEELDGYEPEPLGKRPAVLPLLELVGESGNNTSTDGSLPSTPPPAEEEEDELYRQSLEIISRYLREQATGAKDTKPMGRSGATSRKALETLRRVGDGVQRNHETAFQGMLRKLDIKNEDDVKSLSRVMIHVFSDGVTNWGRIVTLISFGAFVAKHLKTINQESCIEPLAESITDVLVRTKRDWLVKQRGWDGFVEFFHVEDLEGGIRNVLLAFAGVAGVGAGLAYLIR

COc1ccc(/C=C(\C#N)c2n[nH]c(Cn3cncn3)n2)cc1
IC50 (Coagulation factor XII): > 50 µM (inconclusive)

CCOCCn1c(-c2ccc(OC)cc2)nc2ccccc21
IC50 (Coagulation factor XII): > 50 µM (inactive)

CCOc1ccc(N(CC(=O)Nc2cccc(F)c2)S(=O)(=O)c2c(C)noc2C)cc1
IC50 (Coagulation factor XII): > 50 µM (inactive)

O=C(Nc1ccc(Cl)c(Cl)c1)OCc1cccnc1
EC50 [1]: > 30 µM (not active) | EC50 [2]: 2.5 µM (active) | AC50 (HeLa): 39.5 µM (active)

Cc1ccccc1NC(=O)c1ccc(NC(=O)C2CC(=O)OC23CCCCC3)cc1 (stereo not drawn)
IC50 (Prothrombin): > 50 µM (not active)

CCOc1ccc(-n2c(SCC(=O)Nc3cc(C)on3)nnc2-c2c[nH]c3ccccc23)cc1
IC50 (Coagulation factor XII): > 50 µM (inactive)

Cc1ccc(-c2nnc3ccc(SCC(=O)N4CCCc5ccccc54)nn23)cc1
IC50 (Fatty acid synthase [3]): 4.07 µM (active) | IC50 (Fatty acid synthase [4]): 5.68 µM (active) | IC50 (H9c2): 38.4 µM (inactive)

c1ccc2c(c1)OCC(c1nnc3sc(-c4ccc5c(c4)OCO5)nn13)O2 (stereo not drawn)
IC50 [5]: 52.8 µM (active)

NC(=O)N/N=C/C=C/c1ccccc1 [PHENYLETHENYLSEMICARBAZONE]
IC50 (Prothrombin): > 50 µM (not active)

O=C(NCc1ccco1)C(=O)c1cn(CC(=O)N2CCCCCC2)c2ccccc12
IC50 (Leucine aminopeptidase): 11.6 µM (active)

CCOC(=O)c1sc(=S)n(C)c1NC(=O)c1ccc(OC)cc1
IC50 [5]: 41.1 µM (active)

Cc1ccc2nc3cc([N+](=O)[O-])cc([N+](=O)[O-])c3cc2c1
AC50 [6]: 8.46 µM (active) | CC50 (Vero): 6.28 µM (active) | IC50 (Genome polyprotein): 9.85 µM (active)

CCOC(=O)N1CCN(C(=O)c2oc3ccc(S(=O)(=O)N4CCOCC4)cc3c2C)CC1
IC50 (Prothrombin): > 50 µM (not active)

O=C1N=C(Nc2ccccc2Cl)S/C1=C\c1cccc([N+](=O)[O-])c1O
EC50 [7]: 7.16 µM (active) | EC50 [8]: > 150 µM (inactive) | CC50 (Vero): > 40 µM (active)

Oc1ccc(/N=C/C=C/c2ccc(Br)cc2)cc1-c1nc2ccccc2s1
EC50 [9]: 22.4 µM (active) | EC50 [10]: 28.8 µM (active)

CCN(CC)S(=O)(=O)c1ccc(S(=O)(=O)N2CCCC(C(=O)NC3CC3)C2)cc1 (stereo not drawn)
AC50 [11]: 52 µM (active) | AC50 [12]: 2.9 µM (active) | IC50 (Protein Wnt-3a): 0.444 µM (active) | AC50 [13]: 9.46 µM (active)

N#Cc1c(NC(=O)C2CC(c3ccccc3O)=NO2)sc2c1CCC2 (stereo not drawn)
IC50 [14]: > 66 µM (inactive) | IC50 [15]: > 66 µM (inactive)

O=C(CSc1nc2c(c(=O)n1-c1ccc(F)cc1)SCC2)NCc1ccco1
IC50 [14]: > 66 µM (inactive) | IC50 [15]: > 66 µM (inactive)

Cc1ccc(-c2nn(-c3ccccc3)cc2/C=C2\SC(=S)N(CC(=O)O)C2=O)cc1
IC50 [16]: 4.14 µM (active) | IC50 (Genome polyprotein): 36.5 µM (active)

C[C@@H]1CN([C@@H](C)CO)C(=O)c2cccc(NC(=O)Nc3ccc(C(F)(F)F)cc3)c2O[C@@H]1CN(C)Cc1ccc(C(F)(F)F)cc1
AC50 [17]: 3.89 µM (active)

COc1ccc(NC(=S)NC(=O)c2ccccc2)cn1
IC50 [14]: > 66 µM (inactive) | IC50 [15]: > 66 µM (inactive)

CC1CCCN(c2c([N+](=O)[O-])c(=O)oc3ccccc23)C1 (stereo not drawn)
IC50 (cells [18]): > 29.9 µM (inactive) | EC50 (cells [19]): > 29.9 µM (inactive)

Cc1ccc(NC(=O)c2ccc3ccccc3n2)cc1S(=O)(=O)N(C)C
AC50 (HeLa): 35.4 µM (active)

Cc1noc(C)c1S(=O)(=O)Nc1ccc2c(c1)CC(=O)N([C@@H](C)CO)C[C@H](C)[C@@H](CN(C)Cc1ccc(-c3ccccc3)cc1)O2
AC50 [17]: 4.33 µM (active)

Cc1ccc(S(=O)(=O)Nc2cccc3c2O[C@@H](CN(C)Cc2ccc(-c4ccccc4)cc2)[C@@H](C)CN([C@@H](C)CO)C3=O)cc1
AC50 [17]: 3.36 µM (active)

CCCN1CCC(N2CCCC(C(=O)O)C2)CC1 (stereo not drawn)
IC50 (Prothrombin): > 50 µM (not active)

Cc1cc(O)n2nc(-c3ccsc3-n3c(C)ccc3C)cc2n1
IC50 [16]: 4.96 µM (active)

CC1=NNC(=O)C1CCC(=O)N/N=C(/C)c1ccc([N+](=O)[O-])cc1 (stereo not drawn)
IC50 (Leucine aminopeptidase): 80.6 µM (active)

O=C(NC1CCCCCC1)c1c(O)nc2ccccc2c1O
AC50 (HeLa): 62.7 µM (active)

COc1ccc(S(=O)(=O)Nc2ccc3c(c2)CC(=O)N([C@@H](C)CO)C[C@@H](C)[C@@H](CN(C)Cc2ccc(C(=O)Nc4ccccc4N)cc2)O3)cc1
AC50 [17]: 1.62 µM (active)

Cc1c(C(=O)Nc2ccccc2F)cnn1-c1ccccc1
AC50 (HeLa): 80.9 µM (active)
